Reference: patent US6376692B1, “Zirconium alkoxytris (β-Diketonate), process for manufacturing the same, and liquid composition for formation of PZT film” (Kabushikikaisha Kojundokagaku Kenkyusho, priority 1999, dated 2002)
Read-outs that look alike come from different tables or passages of the source.

Conditions: room temperature

Row | Structure (SMILES) | amount dissolved in 1 liter of the solvent (Butyl Acetate) | amount dissolved in 1 liter of the solvent (Hexane) | amount dissolved in 1 liter of the solvent (THF) | amount dissolved in 1 liter of the solvent (Toluene) | amount dissolved in 1 liter of the solvent (n-Butyl Ether)
1 | CC(C)(C)C(=O)C=C(O)C(C)(C)C.CC(C)(C)C(=O)C=C(O)C(C)(C)C.CC(C)(C)C(=O)C=C(O)C(C)(C)C.CC(C)(C)C(=O)C=C(O)C(C)(C)C.[Zr] [Zr(dpm)4] | 180 grams in 1 liter of the solven | 430 grams in 1 liter of the solven | 1020 grams in 1 liter of the solven | 290 grams in 1 liter of the solven | 240 grams in 1 liter of the solven
2 | CC(C)(C)C(=O)C=C([O-])C(C)(C)C.CC(C)(C)C(=O)C=C([O-])C(C)(C)C.CC(C)(C)C(=O)C=C([O-])C(C)(C)C.CC(C)[O-].[Zr+4] [Zr(OiPr)(dpm)3, zirconium isopropoxy tris(dipivaloylmethanate)] | 460 grams in 1 liter of the solven | 620 grams in 1 liter of the solven | 980 grams in 1 liter of the solven | 1100 grams in 1 liter of the solven | 430 grams in 1 liter of the solven
